Each structure is given as a SMILES string.

In one assay the target is T1, mERα (Oryzias latipes, UniProt P50241).
T1 sequence (P50241 1-620): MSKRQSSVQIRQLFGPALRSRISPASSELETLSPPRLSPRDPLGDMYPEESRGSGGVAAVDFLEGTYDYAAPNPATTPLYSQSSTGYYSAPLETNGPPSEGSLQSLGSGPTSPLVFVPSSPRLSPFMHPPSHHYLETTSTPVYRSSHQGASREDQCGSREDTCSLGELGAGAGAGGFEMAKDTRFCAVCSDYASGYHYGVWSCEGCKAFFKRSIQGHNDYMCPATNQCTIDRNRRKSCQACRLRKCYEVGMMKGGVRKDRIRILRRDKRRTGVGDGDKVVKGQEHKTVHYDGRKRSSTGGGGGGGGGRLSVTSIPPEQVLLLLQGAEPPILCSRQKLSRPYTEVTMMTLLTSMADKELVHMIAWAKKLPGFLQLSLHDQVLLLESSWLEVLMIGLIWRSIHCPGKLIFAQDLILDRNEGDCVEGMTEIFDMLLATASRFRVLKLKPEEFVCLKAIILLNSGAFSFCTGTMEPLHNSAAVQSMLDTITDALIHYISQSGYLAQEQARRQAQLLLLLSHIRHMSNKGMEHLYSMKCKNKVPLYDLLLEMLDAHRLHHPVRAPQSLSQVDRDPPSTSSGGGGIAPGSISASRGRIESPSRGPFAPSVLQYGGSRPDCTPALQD
Briefly: biochemical. Format: binding, medaka.

A further assay deals with T2, mERβ1 (Oryzias latipes, UniProt A0ACM8PZQ7).
T2 sequence (A0ACM8PZQ7 1-562): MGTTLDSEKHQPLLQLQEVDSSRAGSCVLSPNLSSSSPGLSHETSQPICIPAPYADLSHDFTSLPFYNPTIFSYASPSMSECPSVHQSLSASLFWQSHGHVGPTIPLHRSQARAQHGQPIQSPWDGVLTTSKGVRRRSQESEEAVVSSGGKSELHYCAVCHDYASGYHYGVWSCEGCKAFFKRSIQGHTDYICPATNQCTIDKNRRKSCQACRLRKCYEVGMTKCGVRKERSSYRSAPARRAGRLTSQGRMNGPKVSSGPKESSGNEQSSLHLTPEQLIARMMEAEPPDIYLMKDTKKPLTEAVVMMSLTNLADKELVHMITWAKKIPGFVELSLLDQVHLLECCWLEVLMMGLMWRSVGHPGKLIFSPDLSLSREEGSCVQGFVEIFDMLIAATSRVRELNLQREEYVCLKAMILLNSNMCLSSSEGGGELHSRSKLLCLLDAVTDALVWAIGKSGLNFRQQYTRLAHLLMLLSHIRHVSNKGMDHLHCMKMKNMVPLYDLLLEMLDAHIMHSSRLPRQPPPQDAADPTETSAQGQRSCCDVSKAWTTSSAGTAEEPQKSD
Nature of the assay: Competitive ligand binding assay. The conditions noted are these: for RBA (%) mERβ1: ratio of IC50 of E2β to IC50 of competitor. Set-up: species or system medaka.

Another assay has as its target T3, mERβ2 (Oryzias latipes, UniProt B1B6T4).
T3 sequence (B1B6T4 1-542): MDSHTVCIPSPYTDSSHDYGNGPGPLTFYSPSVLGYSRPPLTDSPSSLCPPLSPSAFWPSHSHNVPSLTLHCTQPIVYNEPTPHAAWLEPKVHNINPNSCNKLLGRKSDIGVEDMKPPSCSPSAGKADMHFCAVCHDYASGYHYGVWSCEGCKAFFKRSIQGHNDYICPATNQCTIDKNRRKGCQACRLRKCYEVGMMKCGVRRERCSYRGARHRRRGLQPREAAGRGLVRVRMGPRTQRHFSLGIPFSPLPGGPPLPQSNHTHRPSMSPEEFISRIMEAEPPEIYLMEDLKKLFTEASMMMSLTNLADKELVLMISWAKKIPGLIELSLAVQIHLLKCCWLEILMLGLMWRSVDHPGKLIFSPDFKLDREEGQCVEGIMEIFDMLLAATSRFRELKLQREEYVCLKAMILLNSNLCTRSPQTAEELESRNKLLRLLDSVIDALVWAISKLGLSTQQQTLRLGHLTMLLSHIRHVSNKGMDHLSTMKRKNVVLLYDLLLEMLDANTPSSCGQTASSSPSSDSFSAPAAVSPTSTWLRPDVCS
Nature of the assay: Competitive ligand binding assay. Further details: species or system medaka. The conditions noted are these: for RBA (%) mERβ2: ratio of IC50 of E2β to IC50 of competitor.

Assay [1] relates to hepatic gene expression in male Japanese medaka. Briefly: Medaka 7-day waterborne exposure, hepatic gene expression by qPCR. Format: in vivo, Japanese medaka (Oryzias latipes).
A further assay concerns hERα and hERβ. Nature of the assay: T47D-KBluc estrogen screening assay, luciferase reporter. To be noted: YES-calibrated stock solutions.
The test system of the next assay is mERα, mERβ1, and mERβ2. Briefly: Ligand binding assays, comparison of affinity across mER subtypes. Set-up: species or system medaka. The conditions noted are these: from IC50 of competitive binding.
[2] abbreviates: male medaka liver, 7 days, YES-derived EEQ 0.64 nM, relative to negative control.
Setting [3] is: liver of E2β-exposed male medaka, mERα expression as calibrator.

The term IC50 denotes the concentration that gives 50% inhibition. Low readings indicate greater potency in that assay, high ones weaker potency in that assay. With `C[C@]12CC[C@@H]3c4ccc(O)cc4CC[C@H]3[C@@H]1CCC2=O` [E1, estrone], at mERα, the IC50 stood at 8.4 nM. Moreover, the “RBA (%) mERα” value on mERα (ratio of IC50 of E2β to IC50 of competitor) was determined as 36.7%. Moreover, at mERβ1, the IC50 was found to be 14.4 nM and the “RBA (%) mERβ1” value is 12.6%. In addition, at mERβ2, the IC50 was determined as 14.4 nM and the “RBA (%) mERβ2” value was 14.6%. Further, in assay [1] (setting [2]), the mERα induction came out at 56 fold. The “more potent in the T47D-KBluc versus the YES” value in the assay on hERα and hERβ is reported as “slightly more potent”.

`C[C@]12CC[C@@H]3c4ccc(O)cc4CC[C@H]3[C@@H]1CC[C@H]2O` [E2α, 17α-estradiol]: on mERβ1, the IC50 was found to be 18.8 nM and the “RBA (%) mERβ1” value stood at 9.6%. Also, on mERβ2, the IC50 was determined as 31.1 nM and the “RBA (%) mERβ2” value is recorded as 6.8%. This molecule also had a mERα induction in assay [1] (setting [2]) of 24 fold. In addition, the “potency less in the T47D-KBluc versus the YES” value in the assay on hERα and hERβ amounted to 3.3 fold.

In the case of `C[C@]12CC[C@@H]3c4ccc(O)cc4CC[C@H]3[C@@H]1CC[C@@H]2O` [E2β, 17β-estradiol], on mERβ1, the IC50 came out at 1.8 nM and the “RBA (%) mERβ1” value is listed as 100.0%. At mERβ2, the IC50 is 2.1 nM and the “RBA (%) mERβ2” value is 100.0%. In addition, in assay [1] (setting [3]), the “mERα expression above mERβ1” value is recorded as 23 fold and the “mERα expression above mERβ2” value came to 5 fold. Further, in assay [1] (setting [2]), the Chg-H gene induction is given as 12,730 fold, the Chg-Hm gene induction is listed as 3,796 fold, the Chg-L gene induction turned out to be 324 fold and the Vtg-1 gene induction is given as 27,004 fold. Further, in assay [1] (setting [2]), the Vtg-2 gene induction is 73,735 fold and the mERα induction was 72 fold.

In the case of `C[C@]12CC[C@@H]3c4ccc(O)cc4CC[C@H]3[C@@H]1C[C@@H](O)[C@@H]2O` [E3, estriol], at mERβ1, the IC50 was determined as 18.1 nM and the “RBA (%) mERβ1” value is reported as 10.0%. Besides, at mERβ2, the half-maximal inhibitory concentration (IC50) came out at 34.2 nM and the “RBA (%) mERβ2” value was 6.1%. Besides, the “higher affinity for mERβ1 versus mERβ2” value in the assay with mERα, mERβ1, and mERβ2 was 1.9 fold. The mERα induction in assay [1] (setting [2]) was 67 fold. The “more potent in the T47D-KBluc versus the YES” value with hERα and hERβ is reported as “approximately 10 fold”.

The record behind these values is PMC4014147 (Environmental Science & Technology, 2014).
